Legend:
IAV HA and NP protein = assay: Western blot of IAV HA and NP protein levels; settings: for stability of virus surface protein HA: IAV, after exposure
[1] = test system: SARS-CoV-2 S and N protein; assay: Western blot of SARS-CoV-2 S and N protein levels; settings: SARS-CoV-2, after exposure
Description: FIG. 3C is a Western blot analysis of IAV HA and NP protein levels after exposure of IAV to the fabric of Example 3-A and comparative example A. Both the virus that was removed (eluate) from each fabric with PBSTE as well as the virus that remained on each fabric was analyzed and reported in FIG. 3D. Similarly, a Western blot analysis of SARS-CoV-2 S and N protein levels after exposure of virus to the Example 3-A and comparative example A as shown in FIG. 3E. Both the virus that was removed (eluate) from each fabric with PBSTE as well as the virus that remained on each fabric were analyzed and reported in FIG. 3F.
There was no effect on the viral nucleoprotein, which allowed use of the viral nucleoprotein as internal control. A similar altered surface protein to nucleoprotein ratio on the zinc-embedded PA66 fabrics was observed.

IAV NA segment = assay: RT-qPCR of viral RNA (NA segment); settings: for viral RNA integrity (RT-qPCR): after treatment
[2] = IAV in the presence of zinc chloride

Description for IAV (H1N1): To investigate if zinc ions can directly inactivate IAV, influenza virus was incubated with varying concentrations of zinc chloride.

| Compound | effect on viral titer (IAV (H1N1); EDTA alone) | stability of virus surface protein HA (IAV HA and NP protein) | stability of virus surface protein S [1] | viral RNA integrity (RT-qPCR) (IAV NA segment) | HA levels (western blot) (IAV HA and NP protein; [2]) | NP levels (western blot) (IAV HA and NP protein; [2]) | cytotoxic effects in tissue culture (MDCK cells) | reduction on the IAV titer (IAV (H1N1); 60 min incubation, varying concentrations, stopped with equimolar EDTA) | viral NA segment levels (RT-qPCR) (IAV NA segment; IAV after zinc chloride and EDTA neutralization) |
| --- | --- | --- | --- | --- | --- | --- | --- | --- | --- |
| O=C(O)CN(CCN(CC(=O)O)CC(=O)O)CC(=O)O [EDTA] | does not have any cytotoxic effects itself or reduce the viral titer |  |  |  |  |  |  |  |  |
| [Cu+2] [copper ions] |  | aberrant migration | aberrant migration | no significant reduction |  |  |  |  |  |
| [Cl-].[Cl-].[Zn+2] [zinc chloride] |  | reduced stability | reduced stability | no significant reduction | reduced in a concentration-dependent manner | did not diminish | cytotoxic | approximately 2 log | No effect |

Reference: patent US11618810B2, “Antiviral articles” (priority 2020, dated 2023)
